Experimental data: US20160375006A1, “USES OF PARALOG-SELECTIVE INHIBITORS OF GSK3 KINASES” (priority 2012, published 2016)

Experiments:
[1] = target: SGK (Homo sapiens, UniProt O00141)
Protocol: (§1) This was completed utilizing one of two assays depending on the kinase being examined.
(§2) A solution of IMAP binding reagent (IMAP Screening Express kit; Molecular Devices) (60 μL) was added to each well and incubated for 30 minutes.
(§3) A solution of termination buffer (QuickScout Screening assist MSA; Carna Biosciences) (60 μL) was added to each well. The entire reaction mixture was then applied to a LabChip3000 system (Caliper Life Science) and the product and substrate peptide peaks were separated and quantified.
(§4) The assay utilized was identical to that of the single point inhibitory activity determination (MSA) but run in dose response. […] A solution of termination buffer (QuickScout Screening assist MSA; Carna Biosciences) (60 μL) was added to each well. The entire reaction mixture was then applied to a LabChip3000 system (Caliper Life Science) and the product and substrate peptide peaks were separated and quantified.

[2] = target: WNK2 (Homo sapiens, UniProt Q9Y3S1)
Protocol: as §1, §2, §3, §4

[3] = target: EPHA6 (Homo sapiens, UniProt Q9UF33)
Protocol: as §1, §2, §3

[4] = target: AurC (Homo sapiens, UniProt Q9UQB9)
Protocol: as §1, §2, §3

[5] = target: FGFR1(V561M) (Homo sapiens, UniProt P11362, V561M)
Protocol: as §1, §2, §3, §4

[6] = target: PKCβ2 (Homo sapiens, UniProt P05771)
Protocol: as §1, §2, §3

[7] = target: LCK (Homo sapiens, UniProt P06239)
Protocol: as §1, §2, §3, §4

[8] = target: HER4 (Homo sapiens, UniProt Q15303)
Protocol: as §1, §2, §3

[9] = target: PHKG2 (Homo sapiens, UniProt P15735)
Protocol: as §1, §2, §3

[10] = target: FES (Homo sapiens, UniProt P07332)
Protocol: as §1, §2, §3, §4

[11] = target: TXK (Homo sapiens, UniProt P42681)
Protocol: as §1, §2, §3, §4

[12] = target: CaMK1α (Homo sapiens, UniProt Q14012)
Protocol: as §1, §2, §3, §4

[13] = target: PRKX (Homo sapiens, UniProt P51817)
Protocol: as §1, §2, §3, §4

[14] = target: AKT1 (Homo sapiens, UniProt P31749)
Protocol: as §1, §2, §3, §4

[15] = target: NPM1-ALK (Homo sapiens, UniProt Q9UM73)
Protocol: as §1, §2, §3

[16] = target: PLK3 (Homo sapiens, UniProt Q9H4B4)
Protocol: as §1, §2, §3

[17] = target: ROCK2 (Homo sapiens, UniProt O75116)
Protocol: as §1, §2, §3

[18] = target: EPHA2 (Homo sapiens, UniProt P29317)
Protocol: as §1, §2, §3, §4

[19] = target: FYN (Homo sapiens, UniProt P06241)
Protocol: as §1, §2, §3, §4

[20] = target: DYRK2 (Homo sapiens, UniProt Q92630)
Protocol: as §1, §2, §3, §4

[21] = target: PKACγ (Homo sapiens, UniProt P22612)
Protocol: as §1, §2, §3, §4

[22] = target: YES(T348I) (Homo sapiens, UniProt P07947, T348I)
Protocol: as §1, §2, §3, §4

[23] = target: PKACβ (Homo sapiens, UniProt P22694)
Protocol: as §1, §2, §3, §4

[24] = target: PKCι (Homo sapiens, UniProt P41743)
Description: as §1
(§5) The assay utilized was identical to that of the single point inhibitory activity determination (MSA) but run in dose response.

[25] = target: MAP2K1_Cascade (Homo sapiens, UniProt Q02750)
Protocol: as §1, §2, §3, §4

[26] = target: PIM1 (Homo sapiens, UniProt P11309)
Protocol: as §1, §2, §3

[27] = target: SPHK1 (Homo sapiens, UniProt Q9NYA1)
Protocol: as §1, §2, §3, §4

[28] = target: NDR1 (Homo sapiens, UniProt Q15208)
Protocol: as §1, §2, §3, §4

[29] = target: ROCK1 (Homo sapiens, UniProt Q13464)
Protocol: as §1, §2, §3, §4

[30] = target: HIPK1 (Homo sapiens, UniProt Q86Z02)
Protocol: as §1, §2, §3

[31] = target: MUSK (Homo sapiens, UniProt O15146)
Protocol: as §1, §2, §3, §4

[32] = target: FMS (Homo sapiens, UniProt P07333)
Protocol: as §1, §2, §3, §4

[33] = target: KIT(D816V) (Homo sapiens, UniProt P10721, D816V)
Protocol: as §1, §2, §3, §4

[34] = target: TNK1 (Homo sapiens, UniProt Q13470)
Description: as §1, §5

[35] = target: DYRK3 (Homo sapiens, UniProt O43781)
Protocol: as §1, §2, §3, §4

[36] = target: MAP2K3_Cascade (Homo sapiens, UniProt P46734)
Protocol: as §1, §2, §3, §4

[37] = target: IKKα (Homo sapiens, UniProt O15111)
Protocol: as §1, §2, §3, §4

[38] = target: PGK (Homo sapiens, UniProt Q13976)
Protocol: as §1, §2, §3, §4

[39] = target: ABL (Homo sapiens, UniProt P00519)
Protocol: as §1, §2, §3, §4

[40] = target: CK2α1/β (Homo sapiens, UniProt P68400)
Protocol: as §1, §2, §3, §4

[41] = target: ARG (Homo sapiens, UniProt P42684)
Protocol: as §1, §2, §3

HER4, sequence (Q15303 26-1308): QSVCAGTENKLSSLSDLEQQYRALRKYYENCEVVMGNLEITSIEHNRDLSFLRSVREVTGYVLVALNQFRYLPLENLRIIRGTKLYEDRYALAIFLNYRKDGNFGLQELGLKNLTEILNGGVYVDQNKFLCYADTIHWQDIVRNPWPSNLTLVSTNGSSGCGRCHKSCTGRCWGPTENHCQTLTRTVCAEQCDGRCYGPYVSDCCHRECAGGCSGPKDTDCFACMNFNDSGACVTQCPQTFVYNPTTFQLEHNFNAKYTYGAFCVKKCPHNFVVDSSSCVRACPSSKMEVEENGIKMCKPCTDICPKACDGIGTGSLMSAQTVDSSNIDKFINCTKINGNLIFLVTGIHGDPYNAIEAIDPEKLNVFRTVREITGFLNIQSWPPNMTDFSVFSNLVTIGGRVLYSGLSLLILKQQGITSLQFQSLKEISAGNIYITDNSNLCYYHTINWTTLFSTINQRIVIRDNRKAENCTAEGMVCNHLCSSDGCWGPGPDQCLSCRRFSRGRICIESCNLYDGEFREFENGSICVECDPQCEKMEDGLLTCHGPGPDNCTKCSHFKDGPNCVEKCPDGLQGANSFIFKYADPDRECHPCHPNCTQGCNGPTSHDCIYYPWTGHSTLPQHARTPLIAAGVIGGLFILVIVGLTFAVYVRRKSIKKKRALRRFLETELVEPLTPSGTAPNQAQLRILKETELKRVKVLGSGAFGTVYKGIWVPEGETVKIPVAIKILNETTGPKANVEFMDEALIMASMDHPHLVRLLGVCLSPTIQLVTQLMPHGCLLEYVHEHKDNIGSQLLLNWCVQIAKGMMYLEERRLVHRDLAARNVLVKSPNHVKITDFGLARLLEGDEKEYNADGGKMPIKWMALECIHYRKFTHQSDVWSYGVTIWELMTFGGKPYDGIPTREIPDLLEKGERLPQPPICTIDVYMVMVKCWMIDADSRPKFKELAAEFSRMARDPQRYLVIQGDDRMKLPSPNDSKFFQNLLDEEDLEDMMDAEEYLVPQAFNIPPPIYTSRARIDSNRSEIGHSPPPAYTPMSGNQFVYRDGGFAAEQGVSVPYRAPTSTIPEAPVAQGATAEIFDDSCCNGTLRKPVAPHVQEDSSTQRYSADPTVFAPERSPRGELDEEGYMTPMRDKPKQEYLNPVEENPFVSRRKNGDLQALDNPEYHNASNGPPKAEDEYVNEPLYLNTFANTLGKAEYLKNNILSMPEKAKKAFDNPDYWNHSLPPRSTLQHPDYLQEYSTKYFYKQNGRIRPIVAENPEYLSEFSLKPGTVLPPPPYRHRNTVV
KIT(D816V), sequence (P10721 26-976 D816V): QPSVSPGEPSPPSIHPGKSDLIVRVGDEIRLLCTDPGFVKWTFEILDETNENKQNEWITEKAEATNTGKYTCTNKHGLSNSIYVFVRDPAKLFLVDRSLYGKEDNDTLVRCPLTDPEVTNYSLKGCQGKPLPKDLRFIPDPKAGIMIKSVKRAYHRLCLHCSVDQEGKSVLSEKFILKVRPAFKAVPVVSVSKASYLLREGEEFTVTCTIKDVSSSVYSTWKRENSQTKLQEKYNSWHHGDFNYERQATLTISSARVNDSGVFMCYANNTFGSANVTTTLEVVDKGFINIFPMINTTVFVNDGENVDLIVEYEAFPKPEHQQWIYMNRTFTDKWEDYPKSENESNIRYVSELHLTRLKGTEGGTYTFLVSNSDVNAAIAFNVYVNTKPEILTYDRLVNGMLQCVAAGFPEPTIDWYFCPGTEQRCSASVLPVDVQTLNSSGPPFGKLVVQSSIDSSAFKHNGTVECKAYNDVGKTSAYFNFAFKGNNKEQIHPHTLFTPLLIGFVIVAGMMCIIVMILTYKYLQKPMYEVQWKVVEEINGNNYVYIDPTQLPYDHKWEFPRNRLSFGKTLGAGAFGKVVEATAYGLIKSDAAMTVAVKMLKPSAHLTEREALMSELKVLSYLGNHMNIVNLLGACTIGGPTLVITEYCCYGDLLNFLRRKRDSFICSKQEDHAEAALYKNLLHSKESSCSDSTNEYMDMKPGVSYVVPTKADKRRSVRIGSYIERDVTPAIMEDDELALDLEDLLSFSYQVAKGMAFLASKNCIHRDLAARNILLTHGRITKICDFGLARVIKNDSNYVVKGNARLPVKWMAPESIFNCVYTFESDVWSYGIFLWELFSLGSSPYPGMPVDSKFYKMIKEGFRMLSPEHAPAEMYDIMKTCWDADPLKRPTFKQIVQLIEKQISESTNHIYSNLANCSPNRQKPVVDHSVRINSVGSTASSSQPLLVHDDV
PRKX, sequence (P51817 whole entry): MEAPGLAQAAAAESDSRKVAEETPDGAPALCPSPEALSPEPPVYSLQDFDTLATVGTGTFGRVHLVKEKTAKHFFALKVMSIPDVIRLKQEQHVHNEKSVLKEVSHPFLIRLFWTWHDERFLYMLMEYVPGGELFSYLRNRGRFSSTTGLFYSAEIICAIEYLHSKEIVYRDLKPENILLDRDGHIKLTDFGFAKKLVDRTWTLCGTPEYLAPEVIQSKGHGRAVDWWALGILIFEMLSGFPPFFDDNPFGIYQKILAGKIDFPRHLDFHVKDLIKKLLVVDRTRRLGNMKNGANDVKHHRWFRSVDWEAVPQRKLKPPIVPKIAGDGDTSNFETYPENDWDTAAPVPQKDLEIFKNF
AurC, sequence (Q9UQB9 whole entry): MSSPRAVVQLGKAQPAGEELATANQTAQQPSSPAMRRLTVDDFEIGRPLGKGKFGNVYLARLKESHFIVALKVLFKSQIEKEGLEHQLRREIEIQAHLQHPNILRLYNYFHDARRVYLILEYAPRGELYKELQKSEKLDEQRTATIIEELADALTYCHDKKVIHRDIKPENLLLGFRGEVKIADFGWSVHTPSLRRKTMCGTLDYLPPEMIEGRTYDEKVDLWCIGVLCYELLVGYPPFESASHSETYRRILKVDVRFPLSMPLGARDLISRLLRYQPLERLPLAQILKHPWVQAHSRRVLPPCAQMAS
PGK, sequence (Q13976 whole entry): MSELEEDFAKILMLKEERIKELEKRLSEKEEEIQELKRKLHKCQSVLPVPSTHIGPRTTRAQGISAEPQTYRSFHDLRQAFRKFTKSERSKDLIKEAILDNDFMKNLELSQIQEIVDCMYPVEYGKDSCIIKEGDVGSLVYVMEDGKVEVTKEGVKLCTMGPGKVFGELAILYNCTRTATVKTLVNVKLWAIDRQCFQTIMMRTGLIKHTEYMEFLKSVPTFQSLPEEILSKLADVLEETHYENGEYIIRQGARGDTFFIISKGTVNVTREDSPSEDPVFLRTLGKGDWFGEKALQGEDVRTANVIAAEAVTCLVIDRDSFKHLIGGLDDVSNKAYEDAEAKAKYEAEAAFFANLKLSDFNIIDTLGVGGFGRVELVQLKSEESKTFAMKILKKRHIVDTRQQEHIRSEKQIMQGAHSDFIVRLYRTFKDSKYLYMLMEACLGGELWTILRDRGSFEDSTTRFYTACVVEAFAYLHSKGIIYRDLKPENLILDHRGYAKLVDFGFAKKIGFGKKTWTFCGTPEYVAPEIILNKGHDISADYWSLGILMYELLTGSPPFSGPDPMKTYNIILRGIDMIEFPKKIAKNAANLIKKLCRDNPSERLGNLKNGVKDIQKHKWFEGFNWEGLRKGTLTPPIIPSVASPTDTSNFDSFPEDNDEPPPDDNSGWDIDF
FES, sequence (P07332 whole entry): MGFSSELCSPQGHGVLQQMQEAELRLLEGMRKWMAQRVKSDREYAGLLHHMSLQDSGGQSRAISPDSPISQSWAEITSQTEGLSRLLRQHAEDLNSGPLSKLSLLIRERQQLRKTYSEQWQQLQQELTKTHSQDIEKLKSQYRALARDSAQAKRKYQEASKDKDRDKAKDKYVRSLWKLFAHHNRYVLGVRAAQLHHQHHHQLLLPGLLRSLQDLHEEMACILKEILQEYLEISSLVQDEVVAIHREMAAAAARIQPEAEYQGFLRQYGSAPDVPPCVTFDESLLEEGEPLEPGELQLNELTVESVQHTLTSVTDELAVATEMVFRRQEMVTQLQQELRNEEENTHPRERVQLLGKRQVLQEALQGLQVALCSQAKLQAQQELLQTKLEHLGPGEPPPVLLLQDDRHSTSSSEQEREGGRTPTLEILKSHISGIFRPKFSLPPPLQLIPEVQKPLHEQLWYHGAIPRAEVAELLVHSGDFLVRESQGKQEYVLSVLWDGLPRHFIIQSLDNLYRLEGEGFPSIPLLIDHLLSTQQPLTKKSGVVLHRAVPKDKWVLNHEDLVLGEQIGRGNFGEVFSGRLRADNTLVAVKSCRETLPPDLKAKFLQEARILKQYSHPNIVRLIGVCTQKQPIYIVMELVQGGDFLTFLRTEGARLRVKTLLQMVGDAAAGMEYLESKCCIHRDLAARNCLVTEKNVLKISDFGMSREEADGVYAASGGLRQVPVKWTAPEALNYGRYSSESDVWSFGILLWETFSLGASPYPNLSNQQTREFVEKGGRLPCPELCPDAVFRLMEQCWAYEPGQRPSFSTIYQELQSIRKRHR
PKCι, sequence (P41743 whole entry): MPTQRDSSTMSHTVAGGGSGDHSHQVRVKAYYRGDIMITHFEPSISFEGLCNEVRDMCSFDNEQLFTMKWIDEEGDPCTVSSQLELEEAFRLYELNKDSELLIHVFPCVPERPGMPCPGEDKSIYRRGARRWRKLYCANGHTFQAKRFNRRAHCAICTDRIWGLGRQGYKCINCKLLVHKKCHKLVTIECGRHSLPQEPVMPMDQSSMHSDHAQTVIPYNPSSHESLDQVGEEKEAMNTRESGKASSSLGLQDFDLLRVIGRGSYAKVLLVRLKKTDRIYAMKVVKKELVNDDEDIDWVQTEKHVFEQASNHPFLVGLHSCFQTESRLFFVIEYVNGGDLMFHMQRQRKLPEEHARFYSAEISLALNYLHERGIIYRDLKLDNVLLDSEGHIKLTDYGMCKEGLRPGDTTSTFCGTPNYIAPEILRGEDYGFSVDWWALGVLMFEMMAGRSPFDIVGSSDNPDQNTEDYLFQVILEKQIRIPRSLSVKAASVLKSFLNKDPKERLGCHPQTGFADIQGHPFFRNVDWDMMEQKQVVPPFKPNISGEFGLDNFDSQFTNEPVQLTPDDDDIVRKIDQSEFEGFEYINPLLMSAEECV

## CC[C@@]1(c2ccccc2)C2=C(CC(C)(C)CC2=O)Nc2n[nH]cc21 [BRD0705]
[1]
  % Inhibition at 10 μM: −4.4%
[2]
  % Inhibition at 10 μM: −5.0%
[3]
  % Inhibition at 10 μM: 7.4%
[4]
  % Inhibition at 10 μM: 7.3%
[5]
  % Inhibition at 10 μM: −3.2%
[6]
  % Inhibition at 10 μM: −5.7%
[7]
  % Inhibition at 10 μM: 5.0%
[8]
  % Inhibition at 10 μM: 1.3%
[9]
  % Inhibition at 10 μM: −5.8%
[10]
  % Inhibition at 10 μM: 0.6%
[11]
  % Inhibition at 10 μM: −1.7%
[12]
  % Inhibition at 10 μM: −4.7%
[13]
  % Inhibition at 10 μM: −4.7%
[14]
  % Inhibition at 10 μM: −8.3%
[15]
  % Inhibition at 10 μM: 3.7%
[16]
  % Inhibition at 10 μM: −12.5%
[17]
  % Inhibition at 10 μM: −5.8%
[18]
  % Inhibition at 10 μM: −2.6%
[19]
  % Inhibition at 10 μM: 3.1%
[20]
  % Inhibition at 10 μM: −3.0%
[21]
  % Inhibition at 10 μM: −3.6%
[22]
  % Inhibition at 10 μM: 3.3%
[23]
  % Inhibition at 10 μM: −7.7%
[24]
  % Inhibition at 10 μM: −4.3%
[25]
  % Inhibition at 10 μM: 3.0%
[26]
  % Inhibition at 10 μM: −3.4%
[27]
  % Inhibition at 10 μM: −20.5%
[28]
  % Inhibition at 10 μM: −4.8%
[29]
  % Inhibition at 10 μM: −2.0%
[30]
  % Inhibition at 10 μM: −6.5%
[31]
  % Inhibition at 10 μM: −0.6%
[32]
  % Inhibition at 10 μM: −8.2%
[33]
  % Inhibition at 10 μM: 3.5%
[34]
  % Inhibition at 10 μM: −4.0%
[35]
  % Inhibition at 10 μM: 7.7%
[36]
  % Inhibition at 10 μM: 6.7%
[37]
  % Inhibition at 10 μM: −0.2%
[38]
  % Inhibition at 10 μM: −2.1%
[39]
  % Inhibition at 10 μM: 4.2%
[40]
  % Inhibition at 10 μM: −6.0%
[41]
  % Inhibition at 10 μM: 1.1%

## CC(C)(C)Cc1[nH]nc2c1[C@](C)(c1ccccc1)C1=C(CC(C)(C)CC1=O)N2 [BRD3731]
[1]; 10 μM
  % Inhibition 10 μM: −0.4%
[2]; 10 μM
  % Inhibition 10 μM: 1.6%
[3]; 10 μM
  % Inhibition 10 μM: 9.6%
[4]; 10 μM
  % Inhibition 10 μM: 4.9%
[5]; 10 μM
  % Inhibition 10 μM: 0.3%
[6]; 10 μM
  % Inhibition 10 μM: 3.8%
[7]; 10 μM
  % Inhibition 10 μM: 9.2%
[8]; 10 μM
  % Inhibition 10 μM: 6.5%
[9]; 10 μM
  % Inhibition 10 μM: 6.0%
[10]; 10 μM
  % Inhibition 10 μM: 0.4%
[11]; 10 μM
  % Inhibition 10 μM: 1.3%
[12]; 10 μM
  % Inhibition 10 μM: 4.7%
[13]; 10 μM
  % Inhibition 10 μM: −0.2%
[14]; 10 μM
  % Inhibition 10 μM: −1.1%
[15]; 10 μM
  % Inhibition 10 μM: −2.1%
[16]; 10 μM
  % Inhibition 10 μM: 4.0%
[17]; 10 μM
  % Inhibition 10 μM: −0.5%
[18]; 10 μM
  % Inhibition 10 μM: 3.2%
[19]; 10 μM
  % Inhibition 10 μM: −1.3%
[20]; 10 μM
  % Inhibition 10 μM: 4.1%
[21]; 10 μM
  % Inhibition 10 μM: 6.5%
[22]; 10 μM
  % Inhibition 10 μM: −2.3%
[23]; 10 μM
  % Inhibition 10 μM: 9.3%
[24]; 10 μM
  % Inhibition 10 μM: 2.5%
[25]; 10 μM
  % Inhibition 10 μM: 3.1%
[26]; 10 μM
  % Inhibition 10 μM: 11.0%
[27]; 10 μM
  % Inhibition 10 μM: 3.4%
[28]; 10 μM
  % Inhibition 10 μM: −3.7%
[29]; 10 μM
  % Inhibition 10 μM: 0.8%
[30]; 10 μM
  % Inhibition 10 μM: 5.8%
[31]; 10 μM
  % Inhibition 10 μM: −7.9%
[32]; 10 μM
  % Inhibition 10 μM: 5.2%
[33]; 10 μM
  % Inhibition 10 μM: −1.7%
[34]; 10 μM
  % Inhibition 10 μM: −6.7%
[35]; 10 μM
  % Inhibition 10 μM: 16.0%
[36]; 10 μM
  % Inhibition 10 μM: −8.8%
[37]; 10 μM
  % Inhibition 10 μM: 1.8%
[38]; 10 μM
  % Inhibition 10 μM: 1.9%
[39]; 10 μM
  % Inhibition 10 μM: 11.4%
[40]; 10 μM
  % Inhibition 10 μM: −2.1%
[41]; 10 μM
  % Inhibition 10 μM: 6.4%
